Patent US7105524B2, “Pesticidal and parasiticidal di-and trifluorosubstituted alkene compounds” (BASF Aktiengesellschaft, priority 2001, dated 2006)

Legend:
[1] = test system: root-knot nematode Meloidogyne sp; assay: Soil nematicide assay targeting root-knot nematode Meloidogyne sp on tomato (granular formulation); type: in vivo; conditions: 1 kg/ha, granular formulation of 5% active ingredient on gypsum carrier, infested soil, tomato plants, visual estimation
Protocol: Soil nematicide assay targeting root-knot nematode Meloidogyne sp on tomato
The test compounds were applied as granular formulations of 5% active ingredient on a gypsum carrier to soil infested with root-knot nematodes. Tomato plants were transplanted into the soil. After galling developed in untreated control plants, tomato plants were harvested and the roots assessed for root knot galling. Based on visual estimation, the percentage of the tomato root-mass that was galled was determined. Percent control root-knot was calculated for the treated plants relative to untreated control plants using the following formula: % control of root knot galling=100×((galling level of untreated plants−galling level of treated plants)/galling level of untreated plants)
In this test, compound A which is known from EP-A 1 000 946 as example 1 acted as comparison active ingredient.

[2] = test system: root-knot nematode Meloidogyne incognita; assay: Soil nematicide assay targeting root-knot nematode Meloidogyne incognita on tomato (soil drench); type: in vivo; conditions: tomato plants, one month after inoculation with 1000 J2 larvae
Description: Soil nematicide assay targeting root-knot nematode Meloidogyne incognita on tomato The test compounds were solubilized in acetone and diluted with water and surfactant to the required test concentrations. The test solution was applied as a soil drench to transplanted tomato plants in cells with sandy loam mixed with sand. One thousand root-knot J2 larvae were applied as an aqueous suspension drenched on the soil surface. The plants were maintained in the greenhouse and, one month after inoculation, the plant roots were washed free of soil. The root-knot galls on the root system of each plant were counted. Treatments were replicated three times. Percent control of root-knot was calculated for the treated plants relative to control plants treated with the acetone-surfactant carrier using the following formula: % control of root knot galls=100×((median number of galls on control plants−median number of galls on treated plants)/median number of galls on control plants) In this test, compound A which is known from EP-A 1 000 946 as example 1 acted as comparison active ingredient.

| SMILES | % control of root knot galling [1] | % control of root knot galls ([2]; 0.16 kg/ha) | % control of root knot galls ([2]; 0.63 kg/ha) |
| --- | --- | --- | --- |
| FC(F)=C(F)CCSc1nc2cccnc2s1 [I.1—1, 2-(3,4,4-Trifluoro-but-3-enylsulfanyl)-thiazolo[5,4-b]pyridine] | 47% | 94% | 100% |
| FC(F)=C(F)CCSc1nc2ncccc2s1 [compound A] | 25% | 13% | 71% |
